Assay results reported in US5034531A, “Fused polycyclic pyranyl compounds as antiviral agents” (priority 1988, dated 1991).
In brackets after ≈: the same amount, converted by molar mass.

Test system: HSV-2
Assay: Transient expression assay: inhibition of HSV replication (HSV-2-induced β-galactosidase expression from HSV-1 TK promoter/Lac Z plasmid pON 245 in HeLa cells)
Type: cell-based, Herpes simplex virus HSV-2 (ATCC VR-540)
Settings: Human alphaherpesvirus 2, HeLa, 24 h, read-out: IC50-values for Inhibition of HSV replication
Description: The following example illustrates the activities of various compounds for inhibiting beta-galactosidase.
Transient Expression Assay
Herpes simplex virus (HSV) is grown and titered on Vero cells, a standard cell line.
Plasmid pON 245 (constructed by Ed Mocarski at Stanford University, Stanford California) is used for the assay. This plasmid contains the HSV-1 thymidine kinase (TK) promoter located immediately 5' of the E. coli Lac Z gene and controls transcription from the bacterial gene in transient assays. Plasmids (22 μg/10^6 cells) are introduced into standard HeLa cells by DEAE-dextran-mediated transfection. DEAE-dextran is an electropositivity charged polymer which is a diethylamino ethyl ether of dextran. Forty-eight hours after transfection, cells are infected with HSV-2 (American Type Collection Culture (ATCC) VR-540) (multiplicity of infection=5 plaque-forming units per cell). Twenty-four hours after viral infection, levels of β-galactosidase in cells are assayed by incubation in the presence of 4-methylumbelliferyl-β-D-galactoside for 2 hours on a microfluorimeter after addition of 0.1 M glycine buffer, pH=10.3. An inhibitory concentration (IC50 value), for example, of 8 μg/ml indicates the amount of compound which reduces maximal β-galactosidase expression by 50 percent. The inhibition of expression of β-galactosidase activity indicates the inhibition of viral replication at events prior to or including […] kinase (TK) expression by HSV-2.

Structure (SMILES)	IC50 [µg/mL]
O=c1c2c(oc3ccccc13)-c1ccccc1CCC2	8 (≈ 30.5 µM)
O=c1c2c(oc3ncccc13)-c1ccccc1CCC2	> 25
O=c1c2c(oc3ncccc13)CCc1ccccc1-2	16 (≈ 64.2 µM)
O=c1c(-c2ccccc2)coc2ncc(Br)cc12	10 (≈ 33.1 µM)
